Common to all, as to assay type: cell-based
The subject of test [1] is Miapaca-2 cells. Put plainly: MiaPaca-2 Combination Cell Proliferation Assay (2) with cobimetinib. As to conditions: MiaPaca-2 cell proliferation, read-out: MiaPaca-2 Combo (2) IC50. Here is the method: MiaPaca-2 Combination Cell Proliferation Assay (2)
Miapaca-2 cells (catalog #CRL-1420) are obtained from the American Type Culture Collect (ATCC, Manassas, VA). Briefly, cells were grown in DMEM supplemented with 10% characterized fetal bovine serum (Invitrogen, Carlsbad, CA), 2.5% New Zealand sourced horse serum and 1% Penicillin/Streptomycin/L-Glutamine at 37° C., 5% CO2, and 95% humidity. Cells are expanded until reaching 70-95% confluency at which point they are subcultured or harvested for assay use. Using the Beckman Coulter Echo 650, a threefold, 8-point serial dilution of compound was spotted column wise into a 384 well black, clear bottom, tissue culture treated plate. Likewise, a threefold, 8-point serial dilution of cobimetinib was spotted row wise into the 384 well black, clear bottom plate containing compound. DMSO concentration was constant across all wells at 0.4%. Seven hundred fifty cells are added per well in 50 μL complete growth medium in each 384-well plate. Plates are incubated for 67-72 hours at 37° C., 5% CO2, and 95% humidity. At the end of the incubation, 10 μL of a 440 μM solution of resazurin (Sigma, St. Louis, MO) in PBS is added to each well of the plate and plates are incubated for an additional 4-6 hours at 37° C., 5% CO2, and 95% humidity. Plates are read on a Synergy2 or equivalent reader (Biotek, Winooski VT) using an excitation of 540 nm and an emission of 600 nm. Drug synergy was assessed via BLISS analysis in the Combenefit software (Cancer Research UK Cambridge Institute, Cambridge, UK). Data is analyzed using Prism software (Graphpad, San Diego, CA) to calculate IC50 values. Shifts in test compound IC50 values are reported from top-constrained combination therapy curves.

Another test deals with WM3629 cells. As to the kind of experiment: WM3629 Cell Proliferation Assay (2). The method, then: WM3629 Cell Proliferation Assay (2)
WM3629 cells (#WM3629-01-0001) are obtained from Rockland Immunochemicals Inc (Gilbertsville, PA). Briefly, cells were grown in MCDB 153 medium (Sigma, #M7403, St. Louis, MO) supplemented with 20% Leibovitz's L-15 (ThermoFisher #11415-064, Waltham, MA), 2% heat inactivated fetal bovine serum (ThermoFisher, #A3840001, Waltham, MA), 5 μg/mL Insulin (Bovine Pancreas) (Sigma, #I0516, St. Louis, MO), 1.68 mM Calcium Chloride (Sigma, #C-34006, St. Louis, MO) and 1% Penicillin/Streptomycin/L-Glutamine (ThermoFisher #10378016, Waltham, MA) at 37° C., 5% CO2, and 95% humidity. Cells are expanded until reaching 70-95% confluency at which point they are sub-cultured or harvested for assay use. Using the Beckman Coulter Echo 650, a serial dilution of test compound is dispensed into a 384-well black clear bottom plate in triplicate. One thousand one hundred twenty-five cells are added per well in 50 μL complete growth medium in the 384-well plate. Plates are incubated for 67-72 hours at 37° C., 5% CO2, and 95% humidity. At the end of the incubation, 10 μL of a 440 μM solution of resazurin (Sigma, #199303, St. Louis, MO) in PBS is added to each well of the plate and plates are incubated for an additional 3-6 hours at 37° C., 5% CO2, and 95% humidity. Plates are read on a Synergy2 or equivalent reader (Biotek, Winooski VT) using an excitation of 540 nm and an emission of 600 nm. Data is analyzed using Prism software (GraphPad, San Diego, CA) to calculate IC50 values.

Test [2] concerns Miapaca-2 cells. Put plainly: MiaPaca-2 Combination Cell proliferation Assay (1) with cobimetinib. As to conditions: MiaPaca-2 cell proliferation, read-out: MiaPaca-2 Combo (1) IC50.

The IC50 is the concentration that inhibits the measured activity by half. For `CNC(=O)c1cc(-c2cncc(-c3cc(NC(=O)c4ccnc(C(C)C)c4)ccc3C)c2)ccn1` [Example 445], the results for the IC50 in the test with Miapaca-2 cells [1] and in the test on WM3629 cells were 100 to 500 nM and no more than 100 nM, respectively. Consider `CNC(=O)c1cc(-c2cc(-c3cc(NC(=O)c4ccnc(C(C)(C)F)c4)ccc3C)cnn2)ccn1` [Example 473], for which the IC50 in the test on WM3629 cells was no more than 100 nM. `CNC(=O)c1cc(-c2cc(-c3cc(NC(=O)c4ccnc(C(C)(C)F)c4)ccc3C)cc(C)n2)ccn1` [Example 470]: in the test with WM3629 cells, the IC50 was no more than 100 nM. `COc1ccc(NC(=O)c2ccnc(C(C)(C)C#N)c2)cc1-c1cccc(-c2cc(NC(=O)C3CC3)ncn2)c1` [Example 438]: the IC50 in the test with Miapaca-2 cells [2] fell in the range of 100 to 500 nM. Regarding `CNC(=O)c1cc(-c2cc(-c3cc(NC(=O)c4ccnc(C(C)(F)F)c4)ccc3C)ccn2)ccn1` [Example 441], the IC50 with Miapaca-2 cells [1] lay in the range of 100 to 500 nM.

For the compound `Cc1cc(-c2cc(NC(=O)c3ccnc(C(C)(C)F)c3)ccc2C)cc(-c2ccnc(C#N)c2)n1` [Example 483], the IC50 with WM3629 cells was no more than 100 nM.

Regarding `CNC(=O)c1cc(-c2cc(-c3cc(NC(=O)c4ccnc(C(C)(C)F)c4)ccc3C)c(F)cn2)ccn1` [Example 469], the IC50 in the test on WM3629 cells was no more than 100 nM. As for `CNC(=O)c1cc(-c2cncc(-c3cc(NC(=O)c4ccnc(C(C)C)c4)ccc3C)c2)ncn1` [Example 446], in the test with WM3629 cells, the IC50 is no more than 100 nM. Still for that read-out and setting: under `CNC(=O)c1cc(-c2cc(-c3cc(NC(=O)c4ccnc(C(C)(C)F)c4)ccn3)ccn2)ccn1` [Example 481] stands 1000 to 10000 nM. In the case of `CNC(=O)c1cc(-c2cc(-c3cc(NC(=O)c4ccnc(C(C)(C)F)c4)c(F)cc3F)ccn2)ccn1` [Example 482], the IC50 in the test on Miapaca-2 cells [1] was 1000 to 10000 nM; with WM3629 cells it was no more than 100 nM. With `Cc1ccc(NC(=O)c2ccnc(C(C)(C)F)c2)cc1-c1ccnc(-c2ccnc(C(N)=O)c2)c1` [Example 476], the IC50 in the test on Miapaca-2 cells [1] is 100 to 500 nM; in the test with WM3629 cells it was no more than 100 nM. `CNC(=O)c1cc(-c2cc(-c3cc(NC(=O)c4ccnc(C(C)(C)F)c4)ccc3F)ccn2)ccn1` [Example 479]: the IC50 in the test on Miapaca-2 cells [1] is 1000 to 10000 nM; with WM3629 cells it was no more than 100 nM. For `Cc1ncc(NC(=O)c2ccnc(C(C)(F)F)c2)cc1-c1ccnc(-c2ccnc(NC(=O)C3CC3)c2)c1` [Example 466], the IC50 in the test on WM3629 cells is no more than 100 nM. `CNC(=O)c1cc(-c2cc(-c3cc(NC(=O)c4cnnc(C(F)(F)F)c4)ccc3C)ccn2)ccn1` [Example 477]: the IC50 in the test with WM3629 cells is no more than 100 nM.

As for `CNC(=O)c1cc(-c2cc(-c3cc(NC(=O)c4ccnc(C(C)(C)F)c4)ccc3C)ncn2)ccn1` [Example 474], the IC50 in the test on WM3629 cells was no more than 100 nM. In the case of `CNC(=O)c1cc(-c2cncc(-c3cc(NC(=O)c4ccnc(C(C)(F)F)c4)ccc3C)c2)ccn1` [Example 440], in the test on Miapaca-2 cells [1], the IC50 lay within 500 to 1000 nM. For `Cc1cc(-c2cc(NC(=O)c3ccnc(C(C)(C)F)c3)ccc2C)cc(-c2ccnc(C(N)=O)c2)n1` [Example 484], the values for the IC50 with Miapaca-2 cells [1] and in the test with WM3629 cells were 500 to 1000 nM and no more than 100 nM, respectively.

`CNC(=O)c1cc(-c2cc(-c3cc(NC(=O)c4ccnc(C(C)C)c4)ccc3C)ccn2)ccn1` [Example 443]: the IC50 in the test on Miapaca-2 cells [1] is 100 to 500 nM; with WM3629 cells, no more than 100 nM.

For the compound `CNC(=O)c1cc(-c2cc(-c3cc(NC(=O)c4ccnc(C(C)(C)F)c4)cc(F)c3C)ccn2)ccn1` [Example 480], the IC50 in the test on WM3629 cells is no more than 100 nM.

For `CNC(=O)c1cc(-c2cncc(-c3cc(NC(=O)c4ccnc(C(C)(C)F)c4)ccc3C)c2)ccn1` [Example 413], the IC50 with Miapaca-2 cells [2] was in the range of 100 to 500 nM.
